Laboratory results reported in ChEMBL document CHEMBL1201862, “PubChem BioAssay data set” (2004).
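How tested: cells in 96-well plates exposed to compound for 48 hours at five concentrations. Here, GI50 denotes the concentration required for 50% inhibition of growth.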 The source made the active and inactive calls. No stated cut-off is given here; in the data, active = GI50 up to about 1.1 µM and inactive = higher.

How the values were obtained:
Assay in all cases: DTP human tumour cell line panel, 48 h
HOP-18 = test system: HOP-18
XF498 = test system: XF498
M19-MEL = test system: M19-MEL
LXFL 529 = test system: LXFL 529
786-0 = test system: 786-0
T47D = test system: T47D
PC-3 = test system: PC-3
MDA-N = test system: MDA-N
RXF 631 = test system: RXF 631

[N-]=[N+]=CC(=O)OCC(N)C(=O)O (centres undefined)
GI50 (HOP-18): 625 µM (inactive)
GI50 (XF498): 5.96 µM (inactive)
GI50 (M19-MEL): 1.41 µM (inactive)

CCOC(=O)c1ccc(N[C@@H]2c3cc4c(cc3C(c3cc(OC)c(O)c(OC)c3)[C@H]3C(=O)OCC32)OCO4)cc1O (some centres undefined)
GI50 (HOP-18): 2.25 µM (inactive)
GI50 (XF498): 1.3 µM (inactive)
GI50 (M19-MEL): 0.893 µM (active)

O=C(O)c1cc2c3c(c1)[C@H]1C=CC[C@H]1CN3CC1CC=CC21 (some centres undefined)
GI50 (HOP-18): > 100 µM (inactive)
GI50 (XF498): > 100 µM (inactive)
GI50 (M19-MEL): > 100 µM (inactive)
GI50 (LXFL 529): > 100 µM (inactive)
GI50 (786-0): > 100 µM (inactive)

CC(=O)OCC1OC(n2cc(F)c(=O)[nH]c2=O)C(NC(=O)OCc2ccccc2)C(OC(C)=O)C1OC(C)=O (centres undefined)
GI50 (HOP-18): > 100 µM (inactive)
GI50 (XF498): > 100 µM (inactive)
GI50 (M19-MEL): > 100 µM (inactive)

CCOC(=O)/C(=N/Nc1ccc(Cl)cc1)N1C(=S)N(C)N=C(C)C=C1S
GI50 (T47D): 29.8 µM (inactive)

Cc1sc(N)c(S(=O)(=O)c2ccccc2)c1C
GI50 (T47D): > 100 µM (inactive)
GI50 (PC-3): > 100 µM (inactive)
GI50 (786-0): > 100 µM (inactive)

CN(C)CCCCN1CCc2c(n(C)c3ccccc23)C1=O
GI50 (T47D): 25.5 µM (inactive)
GI50 (MDA-N): 19.3 µM (inactive)
GI50 (786-0): 33.5 µM (inactive)

CCCCCCCCCCC(C)CCCCCCC(=O)O (centres undefined)
GI50 (HOP-18): > 100 µM (inactive)
GI50 (RXF 631): > 100 µM (inactive)
GI50 (M19-MEL): > 100 µM (inactive)
GI50 (LXFL 529): > 100 µM (inactive)
GI50 (786-0): > 100 µM (inactive)

COc1ccc2c(c1)/C(=C/CCN(C)C)c1ccccc1S2
GI50 (T47D): > 100 µM (inactive)
GI50 (MDA-N): 43.3 µM (inactive)
GI50 (PC-3): 75.9 µM (inactive)

CCCC(=O)Nc1cc(/C=C/C(=O)N2CC(CCl)c3c2cc(OCc2ccccc2)c2[nH]cc(C)c32)n(C)c1 (centres undefined)
GI50 (T47D): 0.225 µM (active)
GI50 (MDA-N): 0.249 µM (active)
GI50 (PC-3): 0.103 µM (active)
GI50 (786-0): 0.0365 µM (active)

CCCCCC1CC(C(C)=O)CN1c1ccc(F)cc1 (centres undefined)
GI50 (HOP-18): 13.1 µM (inactive)
GI50 (XF498): 21.1 µM (inactive)
GI50 (M19-MEL): 39.7 µM (inactive)
GI50 (LXFL 529): 32.1 µM (inactive)

Nc1ncnc2c1ncn2[C@@H]1O[C@H](COP(=O)(O)O)[C@@H](O)[C@@H]1O
GI50 (HOP-18): > 50 µM (inactive)
GI50 (XF498): > 34.4 µM (inactive)
GI50 (M19-MEL): > 50 µM (inactive)

COC1=CC(=O)c2ccccc2C1(C)C1=NC(C)(C)CO1 (centres undefined)
GI50 (HOP-18): > 100 µM (inactive)
GI50 (RXF 631): > 100 µM (inactive)
GI50 (XF498): > 100 µM (inactive)
GI50 (M19-MEL): > 100 µM (inactive)
GI50 (LXFL 529): > 100 µM (inactive)
GI50 (786-0): > 100 µM (inactive)

COc1ccc2cc(/C=N/NC(=O)Nc3ccccc3)ccc2c1
GI50 (T47D): > 100 µM (inactive)
GI50 (MDA-N): > 100 µM (inactive)
GI50 (PC-3): > 100 µM (inactive)

CS(=O)(=O)OCC1=C(COS(C)(=O)=O)C(=O)c2c(O)ccc(O)c2C1=O
GI50 (HOP-18): > 100 µM (inactive)
GI50 (RXF 631): > 100 µM (inactive)
GI50 (LXFL 529): > 100 µM (inactive)

O=NN(CCCl)C(=O)NC1CCSc2ccccc21 (centres undefined)
GI50 (HOP-18): > 69 µM (inactive)
GI50 (XF498): > 100 µM (inactive)
GI50 (M19-MEL): > 100 µM (inactive)

COc1ccc(C23C(=O)c4ccccc4N2O[C@H]2C(=O)N(c4ccccc4)C(=O)[C@H]23)cc1 (some centres undefined)
GI50 (HOP-18): > 100 µM (inactive)
GI50 (RXF 631): > 100 µM (inactive)
GI50 (XF498): > 100 µM (inactive)
GI50 (M19-MEL): > 100 µM (inactive)
GI50 (LXFL 529): > 100 µM (inactive)
GI50 (786-0): > 100 µM (inactive)

C=C1C(=O)C[C@@]23CCC[C@@]12CC(O)C3 (some centres undefined)
GI50 (HOP-18): 6.79 µM (inactive)
GI50 (XF498): 22.6 µM (inactive)
GI50 (M19-MEL): 24.8 µM (inactive)

Cc1ccc(S(=O)(=O)N/N=C/c2c(O)ccc3ccccc23)cc1
GI50 (T47D): 31.8 µM (inactive)
GI50 (MDA-N): 27.6 µM (inactive)
GI50 (PC-3): 20.7 µM (inactive)
GI50 (786-0): 30.1 µM (inactive)

Cc1ccc(-c2c(C#N)c(-c3ccc([N+](=O)[O-])cc3)c(C#N)c(=O)n2NS(=O)(=O)c2ccccc2)cc1
GI50 (MDA-N): 84.3 µM (inactive)
GI50 (PC-3): 25.3 µM (inactive)
GI50 (786-0): 45.3 µM (inactive)

Cc1ccc2c3c4c(ccc13)C(C)(C)OC4=C(C(C)C)C2=O
GI50 (T47D): 53.5 µM (inactive)
GI50 (MDA-N): > 100 µM (inactive)
GI50 (PC-3): 14.5 µM (inactive)
GI50 (786-0): 66.7 µM (inactive)

COc1cc(Nc2nc3ccc(C(F)(F)F)cc3nc2C(=O)O)cc(OC)c1OC
GI50 (T47D): 26.8 µM (inactive)
GI50 (MDA-N): 19.3 µM (inactive)
GI50 (PC-3): 24.4 µM (inactive)
GI50 (786-0): 27.8 µM (inactive)

CC1(C)CCc2cc3c(cc2O1)OC(C)(C)CC3=O
GI50 (XF498): 50.8 µM (inactive)
GI50 (M19-MEL): 88.7 µM (inactive)
GI50 (LXFL 529): 81.5 µM (inactive)

CC1C(O)C2(Oc3cc4c(c5c3[C@@H](CC5O)[C@H]2C)CCC2Cc3nc5c(nc3C[C@@]42C)CC2CCC3C4=C[C@H]6O[C@@]7(O[C@@](C)(CO)C[C@@H]7O)C(C)[C@@]6(O)[C@]4(C)[C@@H](O)CC3[C@]2(C)C5)OC1(C)C (some centres undefined)
GI50 (HOP-18): 2.01 µM (inactive)
GI50 (XF498): 0.115 µM (active)
GI50 (M19-MEL): 0.863 µM (active)

CCCCCCCNC(P(=O)(O)O)P(=O)(O)O
GI50 (T47D): > 100 µM (inactive)
GI50 (MDA-N): > 100 µM (inactive)
GI50 (PC-3): > 100 µM (inactive)
GI50 (786-0): > 100 µM (inactive)

CCCCC(C)C1CCC2(C)C=CC(=O)C(C)=C2C1O (centres undefined)
GI50 (HOP-18): > 100 µM (inactive)
GI50 (XF498): > 100 µM (inactive)
GI50 (M19-MEL): > 100 µM (inactive)

CCCCCC/C(CC(=O)CCC(=O)NCCc1ccccc1)=N\NC(=O)c1ccc2ccccc2c1O
GI50 (HOP-18): 12.1 µM (inactive)
GI50 (RXF 631): 61.2 µM (inactive)
GI50 (XF498): 63 µM (inactive)
GI50 (M19-MEL): 23.3 µM (inactive)
GI50 (LXFL 529): 42.1 µM (inactive)
GI50 (786-0): 31.6 µM (inactive)

O=C(CCC(=O)Nc1ccccc1C(F)(F)F)N/N=C1\C(=N\NC(=O)CCC(=O)Nc2ccccc2C(F)(F)F)C(c2ccc3c(c2)OCO3)Oc2ccccc21 (centres undefined)
GI50 (HOP-18): > 100 µM (inactive)
GI50 (RXF 631): 14 µM (inactive)
GI50 (XF498): 34.2 µM (inactive)
GI50 (M19-MEL): 18.4 µM (inactive)
GI50 (786-0): 8.63 µM (inactive)

[N-]=[N+]=CC(=O)c1ccccc1C#CCCc1ccccc1
GI50 (HOP-18): 40.3 µM (inactive)
GI50 (XF498): 12.1 µM (inactive)

C#Cc1c(C)c(/C=C/C(C)=C\C(=O)OC)n(C)c1C
GI50 (HOP-18): > 100 µM (inactive)
GI50 (XF498): > 100 µM (inactive)
GI50 (M19-MEL): > 100 µM (inactive)
GI50 (LXFL 529): 94 µM (inactive)
GI50 (786-0): 55.1 µM (inactive)

O=C(Nc1cccc(C(F)(F)F)c1)C(=O)C(C(=O)c1ccc(Cl)c(Cl)c1)C1OC(=O)c2ccccc21 (centres undefined)
GI50 (HOP-18): 17.5 µM (inactive)
GI50 (RXF 631): 39.3 µM (inactive)
GI50 (XF498): > 100 µM (inactive)
GI50 (M19-MEL): 18.8 µM (inactive)
GI50 (LXFL 529): 28.7 µM (inactive)
GI50 (786-0): 37.7 µM (inactive)

O=C(O)c1nc2ccc(C(F)(F)F)cc2[nH]c1=O
GI50 (T47D): > 100 µM (inactive)
GI50 (MDA-N): > 100 µM (inactive)
GI50 (PC-3): > 100 µM (inactive)

COC(=O)c1c(-c2ccccc2)c2sc3ccccc3n2c1N
GI50 (T47D): 20.8 µM (inactive)
GI50 (MDA-N): 50.4 µM (inactive)
GI50 (PC-3): 31.1 µM (inactive)
GI50 (786-0): 29.3 µM (inactive)

O=c1cc(N2CCCC2)[nH]c(=O)n1-c1cccc(C(F)(F)F)c1
GI50 (T47D): > 100 µM (inactive)
GI50 (MDA-N): > 100 µM (inactive)
GI50 (PC-3): > 100 µM (inactive)
GI50 (786-0): > 100 µM (inactive)

Cc1c2ccnc(-c3ccccc3)c2cc2c1[nH]c1ccccc12
GI50 (HOP-18): 2.15 µM (inactive)
GI50 (M19-MEL): 0.959 µM (active)

CC(C)NC(=O)OCc1c(COC(=O)NC(C)C)c(-c2cc[n+](COC(=O)Cc3ccccc3)cc2)n2c1CCC2
GI50 (T47D): > 100 µM (inactive)
GI50 (MDA-N): > 100 µM (inactive)
GI50 (PC-3): > 100 µM (inactive)
GI50 (786-0): 46 µM (inactive)

COc1ccc(/C=N/NC(=O)NCCCN(C)C)cc1
GI50 (HOP-18): > 100 µM (inactive)
GI50 (XF498): > 100 µM (inactive)

Nc1nc(Cl)cc(NCCCCCCCCCCCCNc2cc(Cl)nc(N)n2)n1
GI50 (HOP-18): > 100 µM (inactive)
GI50 (XF498): 0.386 µM (active)
GI50 (M19-MEL): 11.8 µM (inactive)
GI50 (LXFL 529): 0.769 µM (active)
